Source: publication PMC10508264, “Exploring the antioxidant, antimicrobial, cytotoxic and biothermodynamic properties of novel morpholine derivative bioactive Mn(II), Co(II) and Ni(II) complexes – combined experimental and theoretical measurements towards DNA/BSA/SARS-CoV-2 3CL^Pro” (RSC Medicinal Chemistry, 2023)

Tests used:
Escherichia coli = assay: Agar disc diffusion, strain A; type: cell-based; design: Inhibition%: concentration or dose not given beside the values; conditions: for Diameter of clear zone inhibition: control (DMSO) 6 mm
CT-DNA [1] = assay: DNA thermal denaturation / biothermodynamic properties; type: binding; conditions: for Tm of DNA–substance adduct: 1:1 ratio (50 μM), free CT-DNA 68 °C; for Binding constant Kr @ 298 K: 25 °C (298 K); for ΔTm: adduct vs CT-DNA alone
Pseudomonas aeruginosa = assay: Agar disc diffusion, strain D; type: cell-based; design: Inhibition%: concentration or dose not given beside the values; conditions: for Diameter of clear zone inhibition: control 6 mm
CT-DNA [2] = assay: DNA binding by UV-vis absorption titration; conditions: for % H (hypochromism): Tris-HCl pH 7.4, 25 °C; for Kb, BH-I (Benesi–Hildebrand method I) / Kb, BH-II (Benesi–Hildebrand method II) / Kb, SK-I (Sakthi–Krause method I) / Kb, SK-II (Sakthi–Krause method II) / Kb, WS-I (Wolfe–Shimmer method I) / Kb, WS-II (Wolfe–Shimmer method II): pH 7.4, 25 °C
Procedure: The DNA-binding experiment was conducted with an electronic absorption spectrophotometer by raising the DNA concentration from zero to 50 μM to the given concentration of all samples (50 μM) in Tris-HCl buffer (5 mM Tris-HCl/50 mM NaCl) with a pH of 7.4 at 25 °C.[13,23–26]
Most medications involve intercalation and groove binding via GC (guanine/cytosine)-rich and AT (adenine/thymine)-rich domains, respectively. The interactions were determined experimentally by electronic absorption spectrum titration. Moreover, intercalating binding is indicated by bathochromic and hypochromic shifts in the absorption spectra, whereas groove binding of the complexes with DNA is indicated by hyperchromic shifts in the titration curve.[61] Generally, four kinds of non-covalent engagements that can be absolutely critical in the interaction of substances with DNA are most frequently illustrated in the literature: (i) involves a negatively charged phosphate fragment as a result of electrostatic interaction; (ii) influences weak van der Waals force attraction/H-bonding; (iii) interaction of a functional moiety with the grooves (major/minor) of the double-stranded DNA as a result of a molecule sticking due to general attraction, or as a result of water or H-bonding expulsion, etc.; (iv) the stacked base pairs of natural DNA are intercalated by hydrophobic forces. Nevertheless, substances are engaged in the reaction because of […] preferred N-7 position and adenine's N-3 location in DNA. The DNA base pairing may also be prevented due to miscoding. All complexes (1–3), including free ligand (HL), were measured both when DNA was present and when it was absent using ultraviolet–visible spectrophotometric absorption titrations in buffer solution with a pH of 7.4 at 25 °C (Fig. 3). In this case, all substances were exposed to two prominent electronic absorption bands of about 260 nm and 335–343 nm, consequent to the π–π* transitions of the phenyl chromophore and MLCT, respectively. While the amount of DNA in each compound rises, the interaction of the chemical substance with DNA base pairs generates noticeable alterations in the strength and wavelength of the intra-ligand charge transfer bands. […] Using Wolfe–Shimmer eqn (1) and (2), Benesi–Hildebrand eqn (3) and (4) and Sakthi–Krause eqn (5) and (6), the observed overall Kb values for all samples were in the following sequence: (2) > (3) > (1) > (HL). […] It is concluded that the co-planarity of the morpholine-linked ligand and complexation of the 2,2′-bipyridine aromatic system with the metal centre promote the ability of the complex to infiltrate DNA base pairs smoothly. Large aromatic systems may also assist the complex to deeply penetrate the core of the phosphate backbone, and those substances may permit the complex to freely penetrate deep into the DNA base pairs. […] The Wolfe–Shimmer eqn (1) and (2),[62] Benesi–Hildebrand eqn (3) and (4),[63] and Sakthi–Krause eqn (5) and (6) were applied to evaluate the Kb results for all samples, which were obtained by modification of the Lineweaver–Burk and Stern–Volmer equations (Table 1).
The Kb values were measured using the Wolfe–Shimmer eqn (1) and (2) from the linear regression plots of [DNA]/(εa − εf) vs. [DNA] M^−1 for method I and (εb − εf)/(εa − εf) vs. 1/[DNA] M^−1 for method II, respectively (Fig. S15 ^†). The Benesi–Hildebrand binding constant (Kb) values were measured using eqn (3) and (4) from the linear regression plots of [1/(Ax − A0)] vs. {1/[DNA]} M^−1 for method I and [(Amax − A0)/(Ax − A0)] vs. {1/[DNA]} M^−1 for method II, respectively (Fig. S16 ^†). The Kb values were estimated using Sakthi–Krause eqn (5) and (6) from the linear regression plots of [A/(A0 − A)] vs. {1/[DNA]} M^−1 for method I (Fig. S17 ^†) and {1/[DNA]} vs. log[A/(A0 − A)] M^−1 for method II (Fig. S18 ^†). In addition, A0 and A represent the absorbance intensity values in the absence and presence of [DNA], respectively. […]

Row | Compound | Inhibition% (Escherichia coli) [%] | Diameter of clear zone inhibition (Escherichia coli) [mm] | Tm of DNA–substance adduct (CT-DNA [1]) [°C] | Binding constant (CT-DNA [1]; 10 °C (283 K)) [M⁻¹] | Binding constant Kr @ 298 K (CT-DNA [1]) [M⁻¹] | Binding constant (CT-DNA [1]; 40 °C (313 K)) [M⁻¹] | ΔTm (CT-DNA [1]) [°C] | Inhibition% (Pseudomonas aeruginosa) [%] | Diameter of clear zone inhibition (Pseudomonas aeruginosa) [mm] | % H (hypochromism) (CT-DNA [2]) [%] | Kb, BH-I (Benesi–Hildebrand method I) (CT-DNA [2]) [M⁻¹] | Kb, BH-II (Benesi–Hildebrand method II) (CT-DNA [2]) [M⁻¹] | Kb, SK-I (Sakthi–Krause method I) (CT-DNA [2]) [M⁻¹] | Kb, SK-II (Sakthi–Krause method II) (CT-DNA [2]) [M⁻¹] | Kb, WS-I (Wolfe–Shimmer method I) (CT-DNA [2]) [M⁻¹] | Kb, WS-II (Wolfe–Shimmer method II) (CT-DNA [2]) [M⁻¹]
1 | [Mn+2].[O-]c1ccccc1N=Cc1ccc(N2CCOCC2)cc1.[O-]c1ccccc1N=Cc1ccc(N2CCOCC2)cc1.c1ccc(-c2ccccn2)nc1 [(1)] | 40 | 10 | 76 | 72350 | 18195 | 7732.1 | 8 | 63 | 16 | 40.61 | 9942 | 21067 | 11049 | 20389 | 18195 | 20826
2 | [Co+2].[O-]c1ccccc1N=Cc1ccc(N2CCOCC2)cc1.[O-]c1ccccc1N=Cc1ccc(N2CCOCC2)cc1.c1ccc(-c2ccccn2)nc1 [(2)] | 40 | 10 | 78 | 98820 | 18806 | 8043.3 | 10 | 54 | 13 | 36.16 | 10468 | 21524 | 14965 | 22526 | 18806 | 21379
3 | [Ni+2].[O-]c1ccccc1N=Cc1ccc(N2CCOCC2)cc1.[O-]c1ccccc1N=Cc1ccc(N2CCOCC2)cc1.c1ccc(-c2ccccn2)nc1 [(3)] | 50 | 12 | 77 | 91140 | 18207 | 7879.7 | 9 | 57 | 14 | 43.46 | 18212 | 20938 | 13001 | 20417 | 18207 | 21275
4 | Oc1ccccc1N=Cc1ccc(N2CCOCC2)cc1 [(HL), 2-(4-morpholinobenzylideneamino)phenol] | 33 | 09 | 74 | 52575 | 15169 | 6067.4 | 6 | 25 | 08 | 37.13 | 6000 | 19515 | 8775 | 17216 | 15169 | 15480
